Each structure is given as a SMILES string. Calls of active or inactive are those of the source. The rule behind the calls is not given here.

The target of test [1] is T1, Mitogen-activated protein kinase kinase kinase kinase 1 (Homo sapiens, UniProt Q92918). Put plainly: Inhibition of HPK1 (unknown origin) at 1 uM using myelin basic protein as substrate incubated for 60 mins in presence of ATP by ADP-Glo kinase assay relative to control. On the technique in general: ADP-Glo turns the ADP formed in a reaction into a luminescent signal.
Target sequence in this assay (Q92918 whole entry, looked up): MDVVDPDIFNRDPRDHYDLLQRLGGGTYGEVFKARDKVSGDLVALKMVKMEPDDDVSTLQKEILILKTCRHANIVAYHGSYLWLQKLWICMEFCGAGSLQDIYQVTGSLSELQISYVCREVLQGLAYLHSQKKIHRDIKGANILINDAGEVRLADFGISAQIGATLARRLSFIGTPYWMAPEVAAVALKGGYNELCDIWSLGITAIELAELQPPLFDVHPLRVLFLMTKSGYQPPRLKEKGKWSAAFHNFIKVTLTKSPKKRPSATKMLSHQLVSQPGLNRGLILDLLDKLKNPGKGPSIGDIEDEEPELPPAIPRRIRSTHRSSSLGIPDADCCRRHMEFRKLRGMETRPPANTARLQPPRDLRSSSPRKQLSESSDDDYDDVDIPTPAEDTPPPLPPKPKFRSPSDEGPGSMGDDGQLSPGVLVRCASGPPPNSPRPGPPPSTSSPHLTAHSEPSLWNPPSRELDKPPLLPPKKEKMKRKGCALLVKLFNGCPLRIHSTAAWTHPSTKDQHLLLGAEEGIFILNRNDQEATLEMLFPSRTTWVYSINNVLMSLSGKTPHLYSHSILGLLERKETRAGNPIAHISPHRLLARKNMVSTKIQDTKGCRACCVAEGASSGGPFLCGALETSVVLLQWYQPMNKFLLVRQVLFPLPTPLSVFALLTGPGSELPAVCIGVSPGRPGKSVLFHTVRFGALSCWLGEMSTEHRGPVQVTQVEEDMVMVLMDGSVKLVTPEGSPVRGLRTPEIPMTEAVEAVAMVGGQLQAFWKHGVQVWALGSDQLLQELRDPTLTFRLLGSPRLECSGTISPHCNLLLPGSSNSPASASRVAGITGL

For test [2], the target named is T1, Mitogen-activated protein kinase kinase kinase kinase 1. Put plainly: Inhibition of HPK1 (unknown origin) at 100 nM using myelin basic protein as substrate incubated for 60 mins in presence of ATP by ADP-Glo kinase assay relative to control.
Target sequence in this assay (Q92918 whole entry, looked up): as above
Test [3] shares this target. Put plainly: Inhibition of HPK1 (unknown origin) using myelin basic protein as substrate incubated for 60 mins in presence of ATP by ADP-Glo kinase assay.
Target sequence in this assay (Q92918 whole entry): as the sequence (Q92918 whole entry, looked up) above
Test [4] shares this target. The experiment in a line: Inhibition of HPK1 in human Jurkat E6.1 cells assessed as phosphorylation of SLP76 at serine 376 residue incubated for 4 hrs by HTRF assay. It counts as cell-based. (TR-FRET usually uses a lanthanide donor and a delayed reading to cut background.)
Target sequence in this assay (Q92918 whole entry): as the sequence (Q92918 whole entry, looked up) above
Test [5] shares this target. Put plainly: Inhibition of HPK1 in human PBMC cells assessed as increase in IL-2 release at above 1 uM preincubated with compound for 1 hr followed by stimulation with alphaCD3/CD28 measured after 48 hrs by ELISA assay. It counts as cell-based. As to conditions: time 49.0 hrs. (An ELISA detects its analyte on a solid surface through an enzyme-linked reagent.)
Target sequence in this assay (Q92918 whole entry, looked up): as above
The target is the same in test [6]. The experiment in a line: Inhibition of HPK1 in human Jurkat E6.1 cells assessed as reduction in SLP76 phosphorylation at Serine 376 residue at 33 nM preincubated with compound for 2 hrs followed by stimulation with alphaCD3/CD28 measured after 10 mins by Western blotting analysis. It counts as cell-based. As to conditions: time 130.0 min.
Target sequence in this assay (Q92918 whole entry, looked up): as above
Test [7] shares this target. Put plainly: Inhibition of HPK1 in human Jurkat E6.1 cells assessed as reduction in SLP76 phosphorylation at Serine 376 residue preincubated with compound for 2 hrs followed by stimulation with alphaCD3/CD28 measured after 10 mins by Western blotting analysis. It counts as cell-based.
Target sequence in this assay (Q92918 whole entry): as the sequence (Q92918 whole entry, looked up) above
The target is the same in test [8]. The experiment in a line: Inhibition of N-terminal DYKDDDDK tagged HPK1 CD (1 to 346 residues) (unknown origin) incubated for 1 hr in presence of ATP by TR-FRET assay.
Target sequence in this assay (Q92918 whole entry): as the sequence (Q92918 whole entry, looked up) above
For test [9] the target is unchanged. The experiment in a line: Inhibition of HPK1 in human PBMC cells assessed as increase in IL-2 release preincubated with compound for 1 hr followed by stimulation with CD3/CD28-dynabead measured after 16 to 18 hrs by ELISA assay. The format is cell-based.
Target sequence in this assay (Q92918 whole entry): as the sequence (Q92918 whole entry, looked up) above
The target is the same in test [10]. Put plainly: Inhibition of HPK1 in human Jurkat E6.1 cells assessed as reduction in SLP76 phosphorylation at Serine 376 residue at 0.4 to 100 nM preincubated with compound for 2 hrs followed by stimulation with alphaCD3/CD28 measured after 10 mins by Western blotting analysis. The format is cell-based. As to conditions: dose 0.4-100 nM, time 130.0 min.
Target sequence in this assay (Q92918 whole entry, looked up): as above
Test [11] shares this target. The experiment in a line: Inhibition of HPK1 in human PBMC cells assessed as reduction in SLP76 phosphorylation at Ser376 residue preincubated with compound for 1 hr followed by stimulation with CD3/CD28-dynabead by ELISA assay. The format is cell-based.
Target sequence in this assay (Q92918 whole entry): as the sequence (Q92918 whole entry, looked up) above

As to `Nc1cc(-c2ccccc2)cc2nc(Nc3cnn(C4CC4)c3)ncc12`, the inhibition (in general, the drop in the measured response relative to a control, in per cent) amounted to 33.6% in [1] and 1.6% in test [2]. As to `Cc1c(N)cncc1-c1cc(N)c2cnc(Nc3cnn(C4CC4)c3)nc2c1`, in [3], the IC50 (as a rule, the midpoint of a concentration-inhibition curve) stood at 10.4 nM. Moreover, the inhibition in test [2] was 93%. In the case of `Cc1c(-c2cc(N)c3cnc(NC(=O)C4CC4)nc3c2)cnc2c1NCCO2`, in test [2], the inhibition was 4.7%.

`Cc1ccc(-c2cc(N)c3cnc(Nc4cnn(C5CC5)c4)nc3c2)cn1`: the results for the inhibition in test [1] and in test [2] were 85.9% and 36.2%, respectively.

Turning to `Cc1cncc(-c2cc(N)c3cnc(Nc4cnn(C5CC5)c4)nc3c2)c1`, the inhibition in test [1] came to 87.6%; in test [2] it was 42.7%. In the case of `Cc1c(-c2cc(N)c3cnc(Nc4ccccc4)nc3c2)cnc2c1NCCO2`, the half-maximal inhibitory concentration (IC50) in test [3] was determined as 6.2 nM. `Cc1c(-c2cc(N)c3cnc(Nc4ccc5c(c4)CCNC5)nc3c2)cnc2c1NCCO2`: the IC50 in test [3] is 4.3 nM. For `CCN1CCc2ccc(Nc3ncc4c(N)cc(-c5cnc6c(c5C)NCCO6)cc4n3)cc2C1`, the IC50 in [3] was 6.9 nM. Turning to `Cc1c(-c2cc(N)c3cnc(Nc4ccncc4)nc3c2)cnc2c1NCCO2`, the IC50 in [3] was found to be 5.7 nM. In the case of `COc1cc2c(cc1Nc1ncc3c(N)cc(-c4cnc5c(c4C)NCCO5)cc3n1)CN(C)CC2`, the IC50 in test [3] came out at 7.3 nM.

With `CN1CCC(c2ncc(-c3cnc(N)c(OCc4cccc(C#CC(C)(C)O)c4)c3)s2)CC1`, the IC50 in [4] is under 100 nM. `CNCCc1cccc(Nc2ncc3c(N)cc(-c4cnc5c(c4C)NCCO5)cc3n2)c1`: the concentration for half-maximal inhibition (IC50) in test [3] was 6 nM.

Regarding `Cc1c(-c2cc(N)c3cnc(Nc4cnn(C)c4C)nc3c2)cnc2c1NCCO2`, the IC50 in [3] worked out at 35.7 nM.

For the molecule `Cc1c(-c2cc(N)c3cnc(Nc4ccc5c(c4)CNCC5)nc3c2)cnc2c1NCCO2`, the IC50 in [3] stood at 3 nM. With `COc1ncc(-c2cc(N)c3cnc(Nc4cnn(C5CC5)c4)nc3c2)cc1N`, the inhibition in test [1] was 60.6%; in test [2] it was 0.1%. For the molecule `Cc1ccncc1-c1cc(N)c2cnc(Nc3cnn(C4CC4)c3)nc2c1`, the IC50 in test [3] amounted to 17.9 nM. Also, the values for the inhibition in test [1] and in test [2] were 98.1% and 87.2%, respectively.

Turning to `CNCCc1ccc(Nc2ncc3c(N)cc(-c4cnc5c(c4C)NCCO5)cc3n2)cc1`, in test [3], the IC50 was determined as 5.6 nM. On to `CC1(C)OC(=O)c2ccc(Nc3ncc(-c4nnco4)c(N[C@H](CO)c4ccccc4)n3)cc21`, for which the results for the inhibition in [1] and in test [2] were 99.7% and 92.5%, respectively. With `CNCc1cccc(Nc2ncc3c(N)cc(-c4cnc5c(c4C)NCCO5)cc3n2)c1`, the IC50 in test [3] was found to be 5 nM.

With `Cc1c(-c2cc(N)c3cnc(Nc4ccn(C)n4)nc3c2)cnc2c1NCCO2`, in test [3], the half-maximal inhibitory concentration (IC50) was 12.7 nM. In the case of `Cc1c(-c2cc(N)c3cnc(Nc4cc(C)n(C)n4)nc3c2)cnc2c1NCCO2`, in test [3], the IC50 is 53 nM. `Nc1cc(-c2cccnc2)cc2nc(Nc3cnn(C4CC4)c3)ncc12`: the IC50 in test [3] was determined as 61.4 nM. For the same molecule, the inhibition was found to be 86% in [1] and 56.2% in test [2].

Turning to `Cc1nn(C)c(C)c1Nc1ncc2c(N)cc(-c3cnc4c(c3C)NCCO4)cc2n1`, in [2], the inhibition came out at 7.5%. `Cc1c(-c2cc(N)c3cnc(Nc4cnn(C)c4)nc3c2)cnc2c1NCCO2`: the IC50 in [3] was 7.8 nM. For the molecule `CCn1ccc(Nc2ncc3c(N)cc(-c4cnc5c(c4C)NCCO5)cc3n2)n1`, the IC50 in [3] came to 15.5 nM.

With `Cc1c(-c2cc(N)c3cnc(Nc4ccc5c(c4)CCN(C)C5)nc3c2)cnc2c1NCCO2`, in test [3], the IC50 came to 4.8 nM. As to `Nc1cc(-c2ccncc2)cc2nc(Nc3cnn(C4CC4)c3)ncc12`, the inhibition was 24.1% in test [1] and -3.3% in [2]. For the molecule `Nc1cc(-c2ccccn2)cc2nc(Nc3cnn(C4CC4)c3)ncc12`, the inhibition in test [1] is 30.3%; in [2], -6.9%.

Regarding `Cc1c(-c2cc(N)c3cnc(Nc4cnn(C5CC5)c4)nc3c2)cnn1C`, the half-inhibitory concentration (IC50) in test [3] was found to be 61.1 nM. For the same molecule, the inhibition in test [1] worked out at 90.9%; in test [2] it was 53.6%.

In the case of `Cc1c(-c2cc(N)c3cnc(Nc4cnn(C(C)C)c4)nc3c2)cnc2c1NCCO2`, the IC50 in test [3] worked out at 6.4 nM. On to `Cc1nn(C)cc1-c1cc(N)c2cnc(Nc3cnn(C4CC4)c3)nc2c1`, for which the inhibition in [1] is 25.8%; in [2], -5.1%.

For `CCn1cc(Nc2ncc3c(N)cc(-c4cnc5c(c4C)NCCO5)cc3n2)cn1`, the IC50 in test [3] is 12 nM. For the molecule `Cc1c(-c2cc(N)c3cnc(Nc4ccccn4)nc3c2)cnc2c1NCCO2`, the IC50 in test [3] was found to be 95.7 nM.

For `Cc1c(-c2cc(N)c3cnc(Nc4cnn(C5CC5)c4)nc3c2)cnc2c1NCCO2`, the IC50 in test [3] worked out at 5.7 nM; in test [7] it was 23.1 nM. In addition, the inhibition result in test [5] and in [6] was “Active” each time. In addition, the inhibition in test [2] came out at 96.3%. Take `Cc1nn(C)cc1Nc1ncc2c(N)cc(-c3cnc4c(c3C)NCCO4)cc2n1`: the half-inhibitory concentration (IC50) in test [3] is 7.9 nM. Turning to `Cn1nccc1-c1cc(N)c2cnc(Nc3cnn(C4CC4)c3)nc2c1`, the inhibition in test [1] was 49.2%; in [2], 23.2%. With `Nc1cncc(-c2cc(N)c3cnc(Nc4cnn(C5CC5)c4)nc3c2)c1`, the IC50 in test [3] stood at 33.2 nM. The inhibition in test [2] was determined as 80%. In the case of `CNCc1ccc(Nc2ncc3c(N)cc(-c4cnc5c(c4C)NCCO5)cc3n2)cc1`, the IC50 in [3] is 4.3 nM.

In the case of `Cc1c(-c2cc(N)c3cnc(Nc4cccnc4)nc3c2)cnc2c1NCCO2`, in [3], the IC50 was 5.5 nM. As for `N#Cc1ccncc1-c1cc(N)c2cnc(Nc3cnn(C4CC4)c3)nc2c1`, the results for the inhibition in test [1] and in test [2] were 85.5% and 36.3%, respectively. Consider `Cc1c(-c2cc(N)c3cnc(Nc4ccc5c(c4)CN(C(C)C)CC5)nc3c2)cnc2c1NCCO2`, for which, in test [3], the IC50 turned out to be 5.2 nM. Consider `Cc1c(-c2cc3cc(NC(=O)C4CC4)ncc3c(N)c2F)cnc2c1NCCO2`, for which the IC50 in test [3] is 3.1 nM; in [8], 0.067 nM; in [11], 84 nM; in [7], 6.1 nM. For the same molecule, the EC50 (commonly the concentration that produces a half-maximal response) in [9] stood at 16 nM. Besides, the inhibition in test [2] was 97.9%. Moreover, the inhibition result in test [10] was “Active”. Turning to `Cn1cc(-c2cc(N)c3cnc(Nc4cnn(C5CC5)c4)nc3c2)cn1`, in test [3], the IC50 was 50.5 nM. The inhibition was 95.8% in test [1] and 68.6% in test [2].

The values are drawn from ChEMBL document CHEMBL5321199, “Development of a series of quinazoline-2,5-diamine derivatives as potent hematopoietic progenitor kinase 1 (HPK1) inhibitors” (Eur J Med Chem, 2023).
